# In patent publication US9446039B2, “Aminoheteroaryl compounds as MTH1 inhibitors” (CEMM—FORSCHUNGSZENTRUM FÜR MOLEKULARE MEDIZIN GMBH, priority 2012, dated 2016):
# Tests used:
# Type in all cases: binding
# [1] = biological target: SW480 colon carcinoma cells lysate proteins (Homo sapiens, UniProt Q9UBR2); details: PreyGene CTSZ
# [2] = biological target: SW480 colon carcinoma cells lysate proteins (Homo sapiens, UniProt P83731); details: PreyGene RPL24; SW480 cells
# [3] = biological target: T1, SW480 colon carcinoma cells lysate proteins (Homo sapiens, UniProt B2RPK0); details: PreyGene HMGB1P1
# T1 sequence (B2RPK0 1-211): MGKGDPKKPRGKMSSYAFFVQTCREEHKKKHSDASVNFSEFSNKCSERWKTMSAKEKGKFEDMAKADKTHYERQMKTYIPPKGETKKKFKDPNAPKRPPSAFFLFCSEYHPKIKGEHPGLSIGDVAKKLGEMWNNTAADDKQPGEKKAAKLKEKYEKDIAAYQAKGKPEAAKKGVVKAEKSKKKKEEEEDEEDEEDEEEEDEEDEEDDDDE
# [4] = biological target: SW480 colon carcinoma cells lysate proteins (Homo sapiens, UniProt P67809); details: PreyGene YBX1; SW480 cells
# [5] = biological target: SW480 colon carcinoma cells lysate proteins (Homo sapiens, UniProt Q9Y230); details: PreyGene RUVBL2
# [6] = biological target: SW480 colon carcinoma cells lysate proteins (Homo sapiens, UniProt P18669); details: PreyGene PGAM1
# [7] = biological target: T2, SW480 colon carcinoma cells lysate proteins (Homo sapiens, UniProt Q15758); details: PreyGene SLC1A5
# T2 sequence (Q15758 1-541): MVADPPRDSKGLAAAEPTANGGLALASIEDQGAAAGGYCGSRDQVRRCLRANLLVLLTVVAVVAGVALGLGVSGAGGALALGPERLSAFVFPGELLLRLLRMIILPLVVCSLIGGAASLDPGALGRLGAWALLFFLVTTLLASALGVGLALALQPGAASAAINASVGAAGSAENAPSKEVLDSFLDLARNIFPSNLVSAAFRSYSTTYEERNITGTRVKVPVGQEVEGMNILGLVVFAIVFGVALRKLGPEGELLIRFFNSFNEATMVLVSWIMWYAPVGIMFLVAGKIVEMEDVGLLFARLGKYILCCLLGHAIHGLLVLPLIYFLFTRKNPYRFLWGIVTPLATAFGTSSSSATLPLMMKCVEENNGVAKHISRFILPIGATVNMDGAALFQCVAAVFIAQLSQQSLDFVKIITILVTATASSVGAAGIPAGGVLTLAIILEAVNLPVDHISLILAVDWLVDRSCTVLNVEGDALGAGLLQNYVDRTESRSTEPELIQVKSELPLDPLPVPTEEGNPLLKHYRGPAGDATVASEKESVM
# [8] = biological target: T3, SW480 colon carcinoma cells lysate proteins (Homo sapiens, UniProt Q14019); details: PreyGene COTL1
# T3 sequence (Q14019 1-142): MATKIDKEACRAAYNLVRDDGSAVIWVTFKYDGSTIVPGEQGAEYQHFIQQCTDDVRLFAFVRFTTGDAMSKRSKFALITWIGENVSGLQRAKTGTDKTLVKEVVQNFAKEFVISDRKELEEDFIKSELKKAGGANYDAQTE
# [9] = biological target: SW480 colon carcinoma cells lysate proteins (Homo sapiens, UniProt P00441); details: PreyGene SOD1
# [10] = biological target: SW480 colon carcinoma cells lysate proteins (Homo sapiens, UniProt P12814); details: PreyGene ACTN1
# [11] = biological target: SW480 colon carcinoma cells lysate proteins (Homo sapiens, UniProt Q15365); details: PreyGene PCBP1; SW480 cells
# [12] = biological target: SW480 colon carcinoma cells lysate proteins (Homo sapiens, UniProt Q562R1); details: PreyGene ACTBL2; SW480 cells
# [13] = biological target: SW480 colon carcinoma cells lysate proteins (Homo sapiens, UniProt Q9BQE3); details: PreyGene TUBA1C; SW480 cells
# SW480 colon carcinoma cells lysate proteins (Homo sapiens, UniProt Q9BQE3), sequence (Q9BQE3 whole entry): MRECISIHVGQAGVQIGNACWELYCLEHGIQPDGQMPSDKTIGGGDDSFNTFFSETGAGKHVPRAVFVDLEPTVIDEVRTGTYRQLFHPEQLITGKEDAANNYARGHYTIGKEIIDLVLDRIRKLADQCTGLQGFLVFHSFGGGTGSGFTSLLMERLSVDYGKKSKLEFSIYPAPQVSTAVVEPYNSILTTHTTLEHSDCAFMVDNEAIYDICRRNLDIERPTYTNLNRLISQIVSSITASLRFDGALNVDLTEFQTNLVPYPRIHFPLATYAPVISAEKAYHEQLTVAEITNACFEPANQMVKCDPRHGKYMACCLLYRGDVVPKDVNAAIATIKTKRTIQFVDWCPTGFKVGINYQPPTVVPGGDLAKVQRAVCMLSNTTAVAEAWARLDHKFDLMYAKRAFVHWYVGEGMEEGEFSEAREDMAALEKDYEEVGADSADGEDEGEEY
# SW480 colon carcinoma cells lysate proteins (Homo sapiens, UniProt Q15365), sequence (Q15365 whole entry): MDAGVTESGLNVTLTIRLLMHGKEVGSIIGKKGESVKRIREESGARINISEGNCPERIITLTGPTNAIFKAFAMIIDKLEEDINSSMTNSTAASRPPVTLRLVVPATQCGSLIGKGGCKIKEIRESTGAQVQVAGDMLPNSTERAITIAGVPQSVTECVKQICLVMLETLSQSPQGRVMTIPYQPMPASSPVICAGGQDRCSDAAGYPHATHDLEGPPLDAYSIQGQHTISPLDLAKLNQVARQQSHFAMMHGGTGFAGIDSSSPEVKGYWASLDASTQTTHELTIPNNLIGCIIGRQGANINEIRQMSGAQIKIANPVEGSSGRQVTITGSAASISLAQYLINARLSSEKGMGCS
# SW480 colon carcinoma cells lysate proteins (Homo sapiens, UniProt Q562R1), sequence (Q562R1 whole entry): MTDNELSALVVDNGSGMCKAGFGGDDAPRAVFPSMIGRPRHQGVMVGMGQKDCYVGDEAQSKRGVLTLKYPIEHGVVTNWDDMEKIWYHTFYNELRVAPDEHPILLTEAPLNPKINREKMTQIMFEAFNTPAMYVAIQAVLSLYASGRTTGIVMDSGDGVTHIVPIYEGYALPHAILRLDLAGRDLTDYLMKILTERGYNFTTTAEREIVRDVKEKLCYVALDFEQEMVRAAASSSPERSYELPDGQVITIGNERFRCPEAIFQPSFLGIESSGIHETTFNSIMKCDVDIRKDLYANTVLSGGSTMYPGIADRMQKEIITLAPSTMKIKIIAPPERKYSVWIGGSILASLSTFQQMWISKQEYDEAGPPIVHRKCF
# SW480 colon carcinoma cells lysate proteins (Homo sapiens, UniProt Q9Y230), sequence (Q9Y230 whole entry): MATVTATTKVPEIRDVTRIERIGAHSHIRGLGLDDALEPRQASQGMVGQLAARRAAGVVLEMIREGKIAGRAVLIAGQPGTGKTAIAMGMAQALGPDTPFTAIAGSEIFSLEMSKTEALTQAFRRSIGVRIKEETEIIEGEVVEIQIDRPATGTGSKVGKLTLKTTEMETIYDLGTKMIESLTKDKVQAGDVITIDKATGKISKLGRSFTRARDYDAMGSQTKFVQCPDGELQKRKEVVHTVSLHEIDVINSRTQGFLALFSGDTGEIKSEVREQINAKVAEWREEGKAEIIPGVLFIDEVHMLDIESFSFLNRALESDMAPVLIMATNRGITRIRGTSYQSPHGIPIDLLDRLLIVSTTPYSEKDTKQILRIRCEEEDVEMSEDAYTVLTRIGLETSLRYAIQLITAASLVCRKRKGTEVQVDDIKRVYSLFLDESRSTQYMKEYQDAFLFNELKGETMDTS
# SW480 colon carcinoma cells lysate proteins (Homo sapiens, UniProt Q9UBR2), sequence (Q9UBR2 62-303): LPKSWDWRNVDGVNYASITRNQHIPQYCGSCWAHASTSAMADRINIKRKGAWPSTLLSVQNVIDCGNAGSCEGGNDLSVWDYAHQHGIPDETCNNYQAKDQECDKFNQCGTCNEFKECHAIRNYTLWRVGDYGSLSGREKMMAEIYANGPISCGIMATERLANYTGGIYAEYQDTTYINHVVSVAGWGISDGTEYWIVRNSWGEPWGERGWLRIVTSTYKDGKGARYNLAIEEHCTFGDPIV
# SW480 colon carcinoma cells lysate proteins (Homo sapiens, UniProt P12814), sequence (P12814 whole entry): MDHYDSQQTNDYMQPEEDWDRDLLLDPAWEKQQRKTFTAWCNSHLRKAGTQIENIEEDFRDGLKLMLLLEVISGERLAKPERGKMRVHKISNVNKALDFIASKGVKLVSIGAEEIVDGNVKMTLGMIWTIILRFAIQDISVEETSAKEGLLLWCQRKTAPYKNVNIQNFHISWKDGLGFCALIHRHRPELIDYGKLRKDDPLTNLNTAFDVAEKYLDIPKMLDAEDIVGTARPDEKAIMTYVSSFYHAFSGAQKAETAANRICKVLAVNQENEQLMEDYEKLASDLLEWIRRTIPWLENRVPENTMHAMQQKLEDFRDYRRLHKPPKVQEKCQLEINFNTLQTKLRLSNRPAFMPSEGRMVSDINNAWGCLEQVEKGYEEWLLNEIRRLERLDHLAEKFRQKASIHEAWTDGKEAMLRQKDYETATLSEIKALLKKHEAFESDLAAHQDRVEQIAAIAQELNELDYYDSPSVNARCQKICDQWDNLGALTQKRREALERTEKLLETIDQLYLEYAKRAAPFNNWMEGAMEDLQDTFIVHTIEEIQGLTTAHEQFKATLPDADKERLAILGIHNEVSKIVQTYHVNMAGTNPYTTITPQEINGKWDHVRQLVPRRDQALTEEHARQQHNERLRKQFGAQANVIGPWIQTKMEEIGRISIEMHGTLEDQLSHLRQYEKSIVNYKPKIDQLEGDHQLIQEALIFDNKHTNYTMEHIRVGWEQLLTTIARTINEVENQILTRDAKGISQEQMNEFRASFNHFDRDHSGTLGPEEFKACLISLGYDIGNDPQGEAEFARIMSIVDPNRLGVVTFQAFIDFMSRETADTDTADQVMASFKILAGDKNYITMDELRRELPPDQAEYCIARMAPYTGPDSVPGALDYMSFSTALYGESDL
# SW480 colon carcinoma cells lysate proteins (Homo sapiens, UniProt P67809), sequence (P67809 whole entry): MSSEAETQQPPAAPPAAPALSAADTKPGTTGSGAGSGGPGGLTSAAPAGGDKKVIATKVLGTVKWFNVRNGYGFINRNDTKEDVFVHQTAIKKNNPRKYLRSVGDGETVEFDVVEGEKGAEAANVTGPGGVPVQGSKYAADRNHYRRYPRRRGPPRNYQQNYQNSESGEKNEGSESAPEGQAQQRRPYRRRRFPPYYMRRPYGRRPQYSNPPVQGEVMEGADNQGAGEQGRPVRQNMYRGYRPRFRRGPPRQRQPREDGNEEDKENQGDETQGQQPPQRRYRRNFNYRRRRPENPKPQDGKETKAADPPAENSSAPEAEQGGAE
# SW480 colon carcinoma cells lysate proteins (Homo sapiens, UniProt P00441), sequence (P00441 whole entry): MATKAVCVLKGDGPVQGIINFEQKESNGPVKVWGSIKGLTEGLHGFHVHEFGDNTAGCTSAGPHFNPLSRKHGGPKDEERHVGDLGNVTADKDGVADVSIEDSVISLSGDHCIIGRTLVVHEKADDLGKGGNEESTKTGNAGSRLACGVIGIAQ
# SW480 colon carcinoma cells lysate proteins (Homo sapiens, UniProt P18669), sequence (P18669 whole entry): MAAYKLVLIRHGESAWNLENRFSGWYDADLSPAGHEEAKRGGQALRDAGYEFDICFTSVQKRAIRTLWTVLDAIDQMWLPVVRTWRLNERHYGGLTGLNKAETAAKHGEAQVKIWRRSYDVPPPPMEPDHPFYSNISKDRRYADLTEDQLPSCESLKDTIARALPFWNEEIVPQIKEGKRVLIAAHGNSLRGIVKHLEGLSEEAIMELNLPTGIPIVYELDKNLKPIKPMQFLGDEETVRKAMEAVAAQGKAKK
compound,measurement,setting,value
C[C@H](Oc1cc(-c2cnn(C3CCNCC3)c2)cnc1N)c1c(Cl)ccc(F)c1Cl [(5)-crizotinib],AvgP,[1],0.3217
same,SC.Exp. 1-1,[1],2
same,SC.Exp. 1-2,[1],2
same,SC.Exp. 2-1,[1],0
same,SC.Exp. 2-2,[1],0
same,Sum (SC.Exp.),[1],4
same,AvgP,[2],0
same,SC.Exp. 1-1,[2],4
same,SC.Exp. 1-2,[2],4
same,SC.Exp. 2-1,[2],3
same,SC.Exp. 2-2,[2],4
same,SC.Exp. Sum,[2],15
same,AvgP,[3],0.3829
same,SC.Exp. 1-1,[3],2
same,SC.Exp. 1-2,[3],2
same,SC.Exp. 2-1,[3],0
same,SC.Exp. 2-2,[3],0
same,Sum (SC.Exp.),[3],4
same,AvgP,[4],0
same,SC.Exp. 1-1,[4],2
same,SC.Exp. 1-2,[4],2
same,SC.Exp. 2-1,[4],2
same,SC.Exp. 2-2,[4],2
same,SC.Exp. Sum,[4],8
same,AvgP,[5],0.4297
same,SC.Exp. 1-1,[5],3
same,SC.Exp. 1-2,[5],3
same,SC.Exp. 2-1,[5],0
same,SC.Exp. 2-2,[5],0
same,Sum (SC.Exp.),[5],6
same,AvgP,[6],0.4721
same,SC.Exp. 1-1,[6],6
same,SC.Exp. 1-2,[6],6
same,SC.Exp. 2-1,[6],0
same,SC.Exp. 2-2,[6],0
same,Sum (SC.Exp.),[6],12
same,AvgP,[7],0.227
same,SC.Exp. 1-1,[7],1
same,SC.Exp. 1-2,[7],0
same,SC.Exp. 2-1,[7],3
same,SC.Exp. 2-2,[7],2
same,Sum (SC.Exp.),[7],6
same,AvgP,[8],0.4372
same,SC.Exp. 1-1,[8],5
same,SC.Exp. 1-2,[8],4
same,SC.Exp. 2-1,[8],0
same,SC.Exp. 2-2,[8],0
same,Sum (SC.Exp.),[8],9
same,AvgP,[9],0.3882
same,SC.Exp. 1-1,[9],3
same,SC.Exp. 1-2,[9],3
same,SC.Exp. 2-1,[9],0
same,SC.Exp. 2-2,[9],0
same,Sum (SC.Exp.),[9],6
same,AvgP,[10],0.2142
same,SC.Exp. 1-1,[10],3
same,SC.Exp. 1-2,[10],1
same,SC.Exp. 2-1,[10],0
same,SC.Exp. 2-2,[10],0
same,Sum (SC.Exp.),[10],4
same,AvgP,[11],0
same,SC.Exp. 1-1,[11],0
same,SC.Exp. 1-2,[11],1
same,SC.Exp. 2-1,[11],0
same,SC.Exp. 2-2,[11],0
same,SC.Exp. Sum,[11],1
same,AvgP,[12],0
same,SC.Exp. 1-1,[12],1
same,SC.Exp. 1-2,[12],1
same,SC.Exp. 2-1,[12],0
same,SC.Exp. 2-2,[12],0
same,SC.Exp. Sum,[12],2
same,AvgP,[13],0
same,SC.Exp. 1-1,[13],1
same,SC.Exp. 1-2,[13],1
same,SC.Exp. 2-1,[13],0
same,SC.Exp. 2-2,[13],1
same,SC.Exp. Sum,[13],3
